Results taken from patent publication US8258114B2, “Modulation of glucose-6-phosphatase translocase expression” (Isis Pharmaceuticals, Inc., priority 2004, dated 2012).
Read-outs that look alike come from different tables or passages of the source.

How the values were obtained:
[1] = tested on: rat glucose-6-phosphatase translocase mRNA; experiment: Reduction of glucose-6-phosphatase translocase mRNA in liver or kidney of ZDF rats (Table 15); format: in vivo; conditions: Rattus norvegicus, rosiglitazone alone 3 mg/kg daily in food
Description: Saline-injected animals served as a control treatment group. At the end of the treatment period, animals were sacrificed and target reduction in liver and kidney were measured by real-time PCR as described in other examples herein. […] For example, the following primer-probe set was designed to hybridize to rat glucose-6-phosphatase translocase sequences cited in Table 1: Forward primer: [NT] (incorporated herein as SEQ ID NO: 339) Reverse primer: [NT] (incorporated herein as SEQ ID NO: 340) PCR probe: […] (incorporated herein as SEQ ID NO: 341), where FAM is the fluorescent dye and TAMRA is the quencher dye.

[2] = Body fat percentage by MRI in Zucker rats (Table 19); conditions: for % Fat: MRI, rosiglitazone alone 3 mg/kg daily
Description: (§2) Male Zucker fa/fa rats, about 17 to 18 weeks of age, purchased from Charles River Laboratories (Wilmington, Mass.), are maintained on a normal rodent diet. Animals are placed into treatment groups of 8 animals each. […] Another treatment group received the food-administered daily doses of 3 mg/kg of rosiglitazone alone. Saline-injected animals served as a control treatment group.
Also monitored throughout the study was body composition. Baseline body composition was measured by MRI prior to the start of treatment (BL). Body composition was also measured during week 3 (Wk 3) and during week 5 (Wk 5) of treatment.

[3] = Liver transaminases ALT and AST in ZDF rats; conditions: week 5
Description: as §2
The liver transaminases, ALT and AST, were measured throughout the study.

[4] = tested on: aged Zucker fa/fa rats; experiment: Oral glucose tolerance test in ZDF rats (Table 17); format: in vivo, rat; conditions: week 3, rosiglitazone alone 3 mg/kg daily
Description: (§1) Saline-injected animals served as a control treatment group.
To further evaluate the effects of ISIS 366228 alone or in combination with rosiglitazone, oral glucose tolerance tests were performed during the third week of treatment. To provide a baseline glucose level, fasted blood glucose levels were measured before the challenge. Glucose was administered by oral gavage via an 18 gauge gavage needle at a dose of 1 g/kg. Plasma glucose levels were measured for 15, 30, 60, 90, and 120 minutes post-challenge, using a glucose analyzer (for example, an Ascencia Glucometer Elite XL, Bayer, Tarrytown, N.Y.).

[5] = Plasma glucose levels of ZDF rats, alone or in combination with rosiglitazone (Table 16); format: in vivo, rat; conditions: rosiglitazone alone 3 mg/kg daily
Description: as §1
Plasma glucose levels were evaluated at the beginning of the study (Wk 0), during the first week of treatment (Wk 1), during the third week of treatment (Wk 3), and during the fifth week of treatment (Wk 5).

[6] = Plasma lipids (cholesterol, triglycerides, free fatty acids) in ZDF rats (Table 21); format: in vivo, rat
Description: as §1
To further assess the physiological effects resulting from inhibition of target mRNA with antisense oligonucleotide alone or in combination with rosiglitazone, the rats were evaluated throughout the treatment period for plasma free fatty acids, plasma cholesterol, and plasma triglyceride levels. Free fatty acids, triglycerides and cholesterol were measured by routine clinical analyzer instruments (e.g. Olympus Clinical Analyzer, Melville, N.Y.). Glucose levels were measured using a glucose analyzer, for example a YSI glucose analyzer (YSI Scientific, Yellow Springs, Ohio).

[7] = Tissue weights (kidney, spleen, liver, fat pad) of ZDF rats (Table 20); conditions: end of study, rosiglitazone alone
Description: Male Zucker fa/fa rats, about 17 to 18 weeks of age, purchased from Charles River Laboratories (Wilmington, Mass.), are maintained on a normal rodent diet. Animals are placed into treatment groups of 8 animals each. One treatment group was dosed subcutaneously twice weekly with 12.5 mg/kg of ISIS 366228 (SEQ ID NO: 203). Another treatment group was dosed twice weekly with 25 mg/kg of ISIS 366228. Other treatment groups were dosed with 12.5 mg/kg or 25 mg/kg ISIS 366228 twice weekly in combination with daily 3 mg/kg doses of rosiglitazone (Rosi) administered in powdered food. Another treatment group received the food-administered daily doses of 3 mg/kg of rosiglitazone alone. Saline-injected animals served as a control treatment group.
Tissue weights were also determined at the end of the study.

[8] = tested on: catalytic subunit of glucose-6-phosphatase (G6PC) mRNA; experiment: Reduction of catalytic subunit of glucose-6-phosphatase (G6PC) mRNA in liver or kidney of ZDF rats (Table 15); format: in vivo, rat; conditions: Rattus norvegicus, rosiglitazone alone 3 mg/kg daily in food
Description: as §1
At the end of the treatment period, animals were sacrificed and target reduction in liver and kidney were measured by real-time PCR as described in other examples herein. Also measured were reductions in the catalytic subunit of glucose-6-phosphatase (G6PC) using a primer-probe set designed to hybridize to that mRNA. For example, the following primer-probe set was designed to hybridize to rat glucose-6-phosphatase translocase sequences cited in Table 1:
Results for each treatment group are shown in Table 15 as the average percent reduction in glucose-6-phosphatase translocase levels or in G6PC as compared to saline treated control.

[9] = Body weights of ZDF rats (Table 18); conditions: for Body weight: rosiglitazone alone 3 mg/kg daily

SMILES: CN(CCOc1ccc(CC2SC(=O)NC2=O)cc1)c1ccccn1 (stereo not shown) [Rosiglitazone, rosiglitazone, reference compound]
- inhibition at 3 mg/kg ([1]; read-out: % Inhibition of glucose-6-phosphatase translocase, Kidney): 0%
- inhibition at 3 mg/kg ([1]; read-out: % Inhibition of glucose-6-phosphatase translocase, Liver): 46%
- body fat percentage (in words) [2]: resulted in increased body fat
- % Fat ([2]; BL (baseline)): 24%
- % Fat ([2]; Wk 3): 32%
- % Fat ([2]; Wk 5): 36%
- liver transaminases ALT and AST (in words) [3]: reductions in levels of these indicators of liver function
- plasma glucose, OGTT ([4]; 0 min (fasted)): 251 mg/dL
- plasma glucose, OGTT ([4]; 15 min): 429 mg/dL
- plasma glucose, OGTT ([4]; 30 min): 490 mg/dL
- plasma glucose, OGTT ([4]; 60 min): 417 mg/dL
- plasma glucose, OGTT ([4]; 90 min): 409 mg/dL
- plasma glucose, OGTT ([4]; 120 min): 384 mg/dL
- Plasma glucose ([5]; Wk 0): 570 mg/dL
- Plasma glucose ([5]; Wk 1): 462 mg/dL
- Plasma glucose ([5]; Wk 3): 487 mg/dL
- Plasma glucose ([5]; Wk 5): 498 mg/dL
- plasma cholesterol (CHOL) ([6]; Wk 0, rosiglitazone alone): 202 mg/dL
- plasma triglycerides (TRIG) ([6]; Wk 0, rosiglitazone alone): 478 mg/dL
- plasma cholesterol (CHOL) ([6]; Wk 1, rosiglitazone alone): 217 mg/dL
- plasma triglycerides (TRIG) ([6]; Wk 1, rosiglitazone alone): 300 mg/dL
- plasma cholesterol (CHOL) ([6]; Wk 3, rosiglitazone alone): 220 mg/dL
- plasma triglycerides (TRIG) ([6]; Wk 3, rosiglitazone alone): 327 mg/dL
- plasma cholesterol (CHOL) ([6]; Wk 5, rosiglitazone alone): 234 mg/dL
- plasma triglycerides (TRIG) ([6]; Wk 5, rosiglitazone alone): 384 mg/dL
- Fat pad weight [7]: 9 grams
- Kidney weight [7]: 4 grams
- Liver weight [7]: 21 grams
- Spleen weight [7]: 0.6 grams
- inhibition at 3 mg/kg ([8]; read-out: % Inhibition of G6PC, Kidney): 5%
- inhibition at 3 mg/kg ([8]; read-out: % Inhibition of G6PC, Liver): 63%
- body weight (in words) [9]: associated with increased body weight
- Body weight ([9]; Wk 0): 404 g
- Body weight ([9]; Wk 1): 422 g
- Body weight ([9]; Wk 2): 444 g
- Body weight ([9]; Wk 3): 453 g
- Body weight ([9]; Wk 4): 465 g
